The values that follow come from ChEMBL document CHEMBL5385882, “Rational design and appraisal of selective Cdc2-Like kinase 1 (Clk1) inhibitors as novel autophagy inducers for the treatment of acute liver injury (ALI)” (Eur J Med Chem, 2023).

pIC50: −log10 of the molar value. Activity calls are given as the source filed them. No cut-off for these calls is given here.

For one data set, the species on record is Homo sapiens. The data set is described as follows: Selectivity index, ratio of IC50 for inhibition of human full length recombinant DYRK1A to IC50 for inhibition of human 130-end recombinant CLK1.
Data set [1] deals with Dual specificity protein kinase CLK1 (Mus musculus) (UniProt P22518). In words: Inhibition of Clk1 in mouse BNL CL.2 cells assessed as redistribution of serine/arginine (SR) proteins from nucleoplasmic (active form) to nuclear speckles (storage form) at 10 uM incubated for 24 hrs by immunofluorescence assay. In kind it is cell-based.
Dual specificity protein kinase CLK1 (Mus musculus), sequence (P22518 whole entry, looked up): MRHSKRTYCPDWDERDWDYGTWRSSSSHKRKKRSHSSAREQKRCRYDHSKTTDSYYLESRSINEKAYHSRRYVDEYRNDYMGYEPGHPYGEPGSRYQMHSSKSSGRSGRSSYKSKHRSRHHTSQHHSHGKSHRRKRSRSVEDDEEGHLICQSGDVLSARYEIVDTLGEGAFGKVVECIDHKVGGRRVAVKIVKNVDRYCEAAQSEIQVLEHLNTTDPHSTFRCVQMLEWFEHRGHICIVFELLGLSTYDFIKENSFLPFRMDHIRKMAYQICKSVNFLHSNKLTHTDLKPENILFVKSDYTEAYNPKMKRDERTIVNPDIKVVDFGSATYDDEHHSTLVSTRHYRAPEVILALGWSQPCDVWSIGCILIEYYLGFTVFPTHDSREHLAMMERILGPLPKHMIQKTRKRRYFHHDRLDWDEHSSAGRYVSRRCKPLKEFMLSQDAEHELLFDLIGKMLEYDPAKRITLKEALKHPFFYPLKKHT
Data set [2] addresses T1, Dual specificity protein kinase CLK1 (Homo sapiens, UniProt P49759). The data set is described as follows: Inhibition of human 130-end recombinant CLK1 assessed as remaining activity using ERMRPRKRQGSVR as substrate by [gamma-32P]ATP binding based scintillation counting based analysis.
Target sequence in this assay (P49759 whole entry): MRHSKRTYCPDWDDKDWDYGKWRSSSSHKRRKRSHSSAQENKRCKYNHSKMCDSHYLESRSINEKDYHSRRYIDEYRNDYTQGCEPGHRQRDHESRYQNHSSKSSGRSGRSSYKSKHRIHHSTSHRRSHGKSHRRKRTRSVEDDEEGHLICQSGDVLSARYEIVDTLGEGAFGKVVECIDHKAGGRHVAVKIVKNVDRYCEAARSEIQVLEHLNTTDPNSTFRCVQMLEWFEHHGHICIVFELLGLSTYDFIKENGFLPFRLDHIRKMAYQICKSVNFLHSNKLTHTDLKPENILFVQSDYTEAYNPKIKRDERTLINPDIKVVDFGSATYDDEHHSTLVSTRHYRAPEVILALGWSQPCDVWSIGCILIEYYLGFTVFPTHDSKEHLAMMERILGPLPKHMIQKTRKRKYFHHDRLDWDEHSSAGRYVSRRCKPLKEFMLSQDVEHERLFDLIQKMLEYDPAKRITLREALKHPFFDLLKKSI
Data set [3] addresses T1, Dual specificity protein kinase CLK1. In words: Inhibition of human 130-end recombinant CLK1 assessed as remaining activity using ERMRPRKRQGSVR as substrate at 100 nM by [gamma-32P]ATP binding based scintillation counting based analysis relative to control.
Target sequence in this assay (P49759 whole entry, looked up): as the sequence (P49759 whole entry) above
Data set [4] has as its target T2, Dual specificity tyrosine-phosphorylation-regulated kinase 1A (Homo sapiens, UniProt Q13627). In words: Inhibition of human full length recombinant DYRK1A assessed as remaining activity using RRRFRPASPLRGPP as substrate at 100 nM by [gamma-32P]ATP binding based scintillation counting based analysis relative to control.
Data set [5] concerns the target T2, Dual specificity tyrosine-phosphorylation-regulated kinase 1A. In words: Inhibition of human full length recombinant DYRK1A assessed as remaining activity using RRRFRPASPLRGPP as substrate by [gamma-32P]ATP binding based scintillation counting based analysis.
A short description of data set [6]: Metabolic stability in human liver microsomes assessed as clearance at 10 uM incubated for 5 mins in the presence of NADPH-generating system by LC-MS/MS analysis. In kind it is ADME, Microsome. Background: Liver microsomes are a subcellular fraction often used to study metabolism.
A short description of data set [7]: Metabolic stability in human liver microsomes assessed as half life at 10 uM incubated for 5 mins in the presence of NADPH-generating system by LC-MS/MS analysis. The data set is classed as ADME, Microsome.
Data set [8] is described as follows: Half life in Balb/c mouse at 10 mg/kg, ip measured upto24 hrs by LC/MS/MS analysis. The data set is classed as ADME, organism-based. To be noted: in vivo, time 24 hrs.
For data set [9], the system named is HeLa. In words: Induction of autophagy in human HeLa cells infected with RFP-GFP-LC3 assessed as increased the number of yellow LC3 puncta at 10 uM after 24 hrs by confocal microscopy. The data set is classed as functional, cell-based.
For data set [10], the target named is T1, Dual specificity protein kinase CLK1. In words: Binding affinity to Clk1 protein (unknown origin) assessed as inhibition of degradation in presence of 1:15 pronase to compound concentration.
Target sequence in this assay (P49759 whole entry, looked up): as the sequence (P49759 whole entry) above
For data set [11], the system named is Mus musculus. The data set is described as follows: Protection against APAP-induced acute liver injury in ip dosed C57BL/6 mouse model assessed as decrease in serum ALT level measured after 6 hrs. The data set is classed as functional, organism-based. Particulars: dose 10-40 mg/kg.
Data set [12] has as its system HeLa. The data set is described as follows: Induction of autophagy in human HeLa cells assessed as ratio of LC3II protein to LC3I at 10 uM by Western blot analysis. In kind it is functional, cell-based. To be noted: time 3-24 hrs, TDE = time-dependent effect. (Immunoblotting shows a protein as a band on a membrane.)
A short description of data set [13]: Oral bioavailability in Balb/c mouse at 10 mg/kg measured upto24 hrs by LC/MS/MS analysis. The data set is classed as ADME, organism-based. Particulars: in vivo, time 24 hrs.
For data set [14], the system named is Mus musculus. In words: Protection against APAP-induced acute liver injury in ip dosed C57BL/6 mouse model assessed as tiny vacuoles in hepatocyte cytoplasm measured after 6 hrs by H and E staining method. In kind it is functional, organism-based. Particulars: dose 10-40 mg/kg.
Data set [15] deals with HeLa. The data set is described as follows: Induction of autophagy in human HeLa cells assessed as increase in LC3II protein at 10 uM by Western blot analysis. Particulars: time 3-24 hrs, TDE = time-dependent effect. In kind it is functional, cell-based.
Data set [16] can be described thus: Half life in Balb/c mouse at 10 mg/kg, iv measured upto24 hrs by LC/MS/MS analysis. In kind it is ADME, organism-based. To be noted: in vivo, time 24 hrs.
In data set [17] the test system is Mus musculus. In words: Protection against APAP-induced acute liver injury in ip dosed C57BL/6 mouse model assessed as decrease in body temperature measured after 6 hrs by H and E staining method. The data set is classed as functional, organism-based. To be noted: dose 10-40 mg/kg.
Data set [18] in a line: Cmax in Balb/c mouse at 10 mg/kg, iv measured upto24 hrs by LC/MS/MS analysis. The data set is classed as ADME, organism-based. The arrangement: time 24 hrs, dose 10 mg/kg, route iv. To be noted: in vivo.
Data set [19] in a line: Cmax in Balb/c mouse at 10 mg/kg, ip measured upto24 hrs by LC/MS/MS analysis. The data set is classed as ADME, organism-based. Set-up: dose 10 mg/kg, time 24 hrs, route ip. To be noted: in vivo.
Data set [20] relates to Mus musculus. In words: Protection against APAP-induced acute liver injury in ip dosed C57BL/6 mouse model assessed as volume of hepatocytes measured after 6 hrs by H and E staining method. In kind it is functional, organism-based. Particulars: dose 10-40 mg/kg.
Data set [21] can be described thus: AUC (0 to t) in Balb/c mouse at 10 mg/kg, po measured upto24 hrs by LC/MS/MS analysis. The data set is classed as ADME, organism-based. The arrangement: dose 10 mg/kg, time 24 hrs, route po. To be noted: in vivo.
Data set [22] can be described thus: AUC (0 to t) in Balb/c mouse at 10 mg/kg, ip measured upto24 hrs by LC/MS/MS analysis. In kind it is ADME, organism-based. The arrangement: time 24 hrs, dose 10 mg/kg, route ip. To be noted: in vivo.
Data set [23] relates to HeLa. In words: Induction of autophagy in human HeLa cells assessed as ratio of LC3II protein to LC3I incubated for 24 hrs by Western blot analysis. The data set is classed as functional, cell-based. To be noted: dose 0.2-10 nM.
Data set [24] has as its system Mus musculus. In words: Protection against APAP-induced acute liver injury in ip dosed C57BL/6 mouse model assessed as necrotic hepatocytes measured after 6 hrs by H and E staining method. In kind it is functional, organism-based. To be noted: dose 10-40 mg/kg.
Data set [25] in a line: Clearance in Balb/c mouse at 10 mg/kg, ip measured upto24 hrs by LC/MS/MS analysis. In kind it is ADME, organism-based. To be noted: in vivo, time 24 hrs.
In data set [26] the test system is Mus musculus. In words: Protection against APAP-induced acute liver injury in ip dosed C57BL/6 mouse model assessed as decrease in serum AST level measured after 6 hrs. The data set is classed as functional, organism-based.
Data set [27] can be described thus: Cmax in Balb/c mouse at 10 mg/kg, po measured upto24 hrs by LC/MS/MS analysis. In kind it is ADME, organism-based. Set-up: dose 10 mg/kg, time 24 hrs, route po. To be noted: in vivo.
Data set [28] has as its system HeLa. The data set is described as follows: Induction of autophagy in human HeLa cells assessed as increase in LC3II protein incubated for 24 hrs by Western blot analysis. The data set is classed as functional, cell-based. Particulars: dose 0.2-10 µM.
Data set [29] addresses Dual specificity protein kinase CLK1 (Mus musculus) (UniProt P22518). In words: Inhibition of Clk1 in mouse BNL CL.2 cells assessed as redistribution of serine/arginine (SR) proteins from nucleoplasmic (active form) to nuclear speckles (storage form) incubated for 24 hrs by immunofluorescence assay. The data set is classed as cell-based. To be noted: dose 1-10 µM.
Data set [30] in a line: AUC (0 to t) in Balb/c mouse at 10 mg/kg, iv measured upto24 hrs by LC/MS/MS analysis. Set-up: time 24 hrs, dose 10 mg/kg, route iv. Particulars: in vivo. The data set is classed as ADME, organism-based.
Data set [31] is described as follows: Clearance in Balb/c mouse at 10 mg/kg, iv measured upto24 hrs by LC/MS/MS analysis. In kind it is ADME, organism-based. To be noted: in vivo, time 24 hrs.
Data set [32] in a line: Half life in Balb/c mouse at 10 mg/kg, po measured upto24 hrs by LC/MS/MS analysis. The data set is classed as ADME, organism-based. To be noted: in vivo, time 24 hrs.
The nature of data set [33]: Clearance in Balb/c mouse at 10 mg/kg, po measured upto24 hrs by LC/MS/MS analysis. In kind it is ADME, organism-based. To be noted: in vivo, time 24 hrs.
For data set [34], the system named is HeLa. In words: Induction of autophagy in human HeLa cells assessed as degradation of SQSTM1/p62 at 10 uM incubated for 24 hrs by Western blot analysis. In kind it is functional, cell-based.

As to `Nc1ccc(-c2cnc3[nH]cc(-c4ccc(O)cc4)c3c2)cc1`, in the data set filed under Homo sapiens, the Selectivity Index came to 1.3. In data set [1], the inhibition result is “Active”. Also, the pIC50 (in general, the IC50 on a negative log10 scale, so that one unit is a factor of ten) in data set [2] is 7.47.

With `COc1cncc(-c2c[nH]c3ncc(NCc4ccc(F)cc4)cc23)c1`, the Activity in [3] came to 6%; in data set [4] it was 88%. Besides, in the data set filed under Homo sapiens, the Selectivity Index stood at 156. Further, the pIC50 is 5.63 in data set [5] and 7.82 in [2]. In addition, in data set [6], the CLH was determined as 76.8 mL/min/g. For the same molecule, the half-life (usually how long it takes for the measured level to halve) at 10 µM in data set [7] was 20.3 min.

For the molecule `COc1cncc(-c2c[nH]c3ncc(NCc4ccc(N5CCOCC5)cc4)cc23)c1`, the values for the Activity in [3] and in data set [4] were 16% and 85%, respectively. For the same molecule, the Selectivity Index in the data set listed under Homo sapiens is 63.2. Further, the results for the pIC50 in [5] and in data set [2] were 5.72 and 7.52, respectively. In [6], the CLH was found to be 65.4 mL/min/g. Further, in [7], the half-life at 10 µM is 21.2 min.

As for `COc1cncc(-c2c[nH]c3ncc(NC(=O)c4ccc(F)cc4)cc23)c1`, the Activity in data set [3] turned out to be 13%; in data set [4], 81%. For the same molecule, in the data set listed under Homo sapiens, the Selectivity Index is 85.8. Besides, the pIC50 was 5.69 in data set [5] and 7.62 in data set [2]. In data set [6], the CLH turned out to be 13.8 mL/min/g. For the same molecule, in data set [7], the half-life at 10 µM stood at 115 min.

With `CN1CCN(c2ccc(C(=O)Nc3cnc4[nH]cc(-c5cncc(F)c5)c4c3)cc2)CC1`, the Activity in data set [3] is 2%; in data set [4], 72%; in data set [10] it was “Dose-Dependent Effect”; in the data set with Mus musculus [11], “Dose-Dependent Effect”; in the data set with HeLa [12], “Tde”; with Mus musculus [14], “Dose-Dependent Effect”. Also, the Activity result was “Tde” in the data set with HeLa [15]; “Dose-Dependent Effect” in the data set with Mus musculus [17]; “Dose-Dependent Effect” in the data set on Mus musculus [20]; “Dose-Dependent Effect” in the data set with HeLa [23]; “Dose-Dependent Effect” with Mus musculus [24]; “Dose-Dependent Effect” with Mus musculus [26]. Further, the Activity result in the data set with HeLa [28] was “Dose-Dependent Effect”. Besides, the half-life in data set [8] was 196 min; in data set [16] it was 178 min; in data set [32], 317 min. Also, the result with HeLa [9] and in the data set on HeLa [34] was Active. In addition, the Selectivity Index in the data set listed under Homo sapiens is 304. Moreover, the pIC50 was 5.82 in data set [5] and 8.30 in [2]. Further, the bioavailability (commonly the share of a dose that reaches the circulation, judged against a reference dose that is usually intravenous) in [13] turned out to be 19.5%. In addition, the highest concentration (Cmax) (commonly the peak of the concentration-time curve) is 13200 ng/mL in data set [18], 4650 ng/mL in data set [19] and 1460 ng/mL in data set [27]. Also, in [6], the CLH is less than 12 mL/min/g. Besides, the AUC(0-t) (usually the area under the concentration-time curve up to a stated or last time point) at 24 h in [21] was found to be 1860 ng·h/mL; in data set [22], 5010 ng·h/mL; in data set [30] it was 9520 ng·h/mL. Further, the CL/F (as a rule, the apparent clearance, not corrected for the fraction that reaches the circulation) in data set [25] is 59.7 mL/min/kg; in data set [33], 91.8 mL/min/kg. In addition, in [7], the half-life at 10 µM is greater than 120 min. Besides, the inhibition result in [29] is “Dose-Dependent Effect”. For the same molecule, in data set [31], the clearance (in general, a measure of how efficiently the substance is removed, as volume per time) was 17.5 mL/min/kg.
